US20100234377A1 (priority 2007, published 2010)
Where two headings read alike, the source gives them in different places.

Legend:
[1] = Mouse microsomal metabolism assay; type: in vitro ADME; conditions: liver microsomes; mouse hepatic microsomes, 37° C., phosphate buffer pH 7.4, NADPH regenerating system; read-out: Mouse t½
Description: Selected GST2 Inhibitors from Formula I Assessed in Mouse Microsomal Metabolism Assay
Selected GST2 inhibitors of General Formula (I) were screened in a mouse hepatic microsome assay to determine microsomal metabolism.
Test Articles were prepared in 50% acetonitrile.
Mouse hepatic microsomes supplied by BD GenTest Inc or an equivalent reputable supplier.
Test Articles are added to incubation plates containing phosphate buffer pH 7.4 and microsomes at a suitable protein concentration. Incubation plates are placed on a shaking water bath at 37° C. for 5 minutes pre-incubation. An aliquot of the reaction mixture is taken and added to acetonitrile (3:1). This is designated time […]. NADPH regenerating system in phosphate buffer pH 7.4 is added to initiate reactions. Aliquots from the incubation wells are taken at a number of time points and added to acetonitrile. Control incubations contained no microsomes or compounds with known microsomal stabilities. Samples were subject to centrifugation to remove denatured protein and the supernatants were analysed by LCMS.
Half lives were calculated from the log vs time transformed data according to the following equation: […]
Where λ is the slope of the linear regression line under first order (Test Article concentration <Km) conditions.

[2] = system: B6.V Lep^ob mice (ob/ob mice); assay: Pharmacological study: body weight and food intake of treated ob/ob mice; type: in vivo, mouse; conditions: male ob/ob mice, 120 mg/kg/day by oral gavage, 12 days of treatment, versus vehicle
Description: FIG. 1 is a body weight curve graph which plots the body weight and food intake of mice over time. Some of the mice are given food only whereas some are given food together with Compound 22 below.
16 Male ob/ob mice were obtained from Charles River in Belgium at an approximate age of 6 weeks and with an approximate mean body weight of 35 g at the beginning of substance administration. Mice were housed 4 per cage at a temperature of 23° C.±1 and a day/night cycle of 14/10 hours (05:00-19:00-05:00), with ad libitum access to standard chow and tap water. Mice were allowed to adapt to these conditions for 8 days prior to the start of treatment. Animals were administered substance by oral gavage in the morning at 07:00, immediately after determining body weight and food consumption. In the evening substance was administered at 19:00. One group of 8 animals were administered vehicle, 0.3% methylcellulose in saline, and the second group of 8 animals were administered Compound 22 (120 mg/kg/day) suspended in the vehicle. Body weight and food consumption were recorded daily during 12 days of treatment and the results are presented in FIG. 1, which is a body weight curve graph. This illustrates a 7% reduced weight gain in Compound 22 administered ob/ob mice, despite unaltered food intake.

[3] = target: T1, PPARγ (h) (Homo sapiens, UniProt P37231); assay: PPARγ receptor binding assay ([3H]rosiglitazone); conditions: Table 3; [3H]rosiglitazone 10 nM, human recombinant
T1 construct: host or cells: E. coli
T1 sequence (P37231 1-505): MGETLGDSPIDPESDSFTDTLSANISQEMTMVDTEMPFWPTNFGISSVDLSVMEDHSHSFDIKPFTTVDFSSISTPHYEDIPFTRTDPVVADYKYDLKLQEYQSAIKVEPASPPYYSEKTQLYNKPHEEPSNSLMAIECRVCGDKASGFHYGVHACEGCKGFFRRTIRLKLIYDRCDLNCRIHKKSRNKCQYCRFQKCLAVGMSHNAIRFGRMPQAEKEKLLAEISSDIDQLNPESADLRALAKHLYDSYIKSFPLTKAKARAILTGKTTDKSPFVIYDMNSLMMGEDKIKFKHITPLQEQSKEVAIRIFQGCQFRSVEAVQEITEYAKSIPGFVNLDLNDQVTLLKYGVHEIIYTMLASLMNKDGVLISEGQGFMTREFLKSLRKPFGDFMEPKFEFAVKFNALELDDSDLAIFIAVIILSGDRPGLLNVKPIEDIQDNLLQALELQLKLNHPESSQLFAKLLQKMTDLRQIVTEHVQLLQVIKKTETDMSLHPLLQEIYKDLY
Description: Selected GST2 Inhibitors Screened Against PPARγ and KATP Channel Modulator Assays
Selected GST2 inhibitors of General Formula (I) were screened in a PPARγ assay to determine their modulator effects.
(§1) The specific ligand binding to the receptor is defined as the difference between the total binding and the non-specific binding determined in the presence of an excess of unlabelled ligand. The results are expressed as a percent inhibition of control specific binding obtained in the presence of the test compounds.
(§2) In each experiment, the respective reference compound was tested concurrently with the test compounds in order to assess the assay suitability. It was tested at several concentrations (for IC50 value determination), and the data were compared with historical values.

[4] = target: T2, human Prostaglandin D Synthase (GST2) (Homo sapiens, UniProt O60760); assay: Homogeneous biochemical assay of human Prostaglandin D Synthase (GST2) based on its glutathion-S-transferase activity (GSH conjugation to monochlorobimane, fluorescence)
T2 construct: the open reading frame of human Prostaglandin D Synthase was amplified from cDNA; made in house; host or cells: E. coli TOP10F'
T2 sequence (O60760 whole entry): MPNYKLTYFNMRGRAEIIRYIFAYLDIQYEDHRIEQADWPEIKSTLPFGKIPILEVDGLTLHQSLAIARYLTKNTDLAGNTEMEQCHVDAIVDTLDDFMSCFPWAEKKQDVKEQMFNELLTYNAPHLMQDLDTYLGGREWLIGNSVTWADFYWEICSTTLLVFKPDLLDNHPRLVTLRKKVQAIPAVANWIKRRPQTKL
Summary of the method: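 N-His-tagged human PGD synthase from E. coli, assayed via its GST activity: GSH conjugation to monochlorobimane in 50 mM MES/KOH pH 6.1, 0.7 mM GSH, 2 mM MgCl2. Compounds at final picomolar to triple-digit micromolar concentrations.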

[5] = target: K+ATP channel (Rattus norvegicus, UniProt Q09429); assay: KATP channel receptor binding assay ([3H]glibenclamide); conditions: [3H]glibenclamide 0.1 nM, rat cerebral cortex
K+ATP channel, sequence (Q09429 whole entry): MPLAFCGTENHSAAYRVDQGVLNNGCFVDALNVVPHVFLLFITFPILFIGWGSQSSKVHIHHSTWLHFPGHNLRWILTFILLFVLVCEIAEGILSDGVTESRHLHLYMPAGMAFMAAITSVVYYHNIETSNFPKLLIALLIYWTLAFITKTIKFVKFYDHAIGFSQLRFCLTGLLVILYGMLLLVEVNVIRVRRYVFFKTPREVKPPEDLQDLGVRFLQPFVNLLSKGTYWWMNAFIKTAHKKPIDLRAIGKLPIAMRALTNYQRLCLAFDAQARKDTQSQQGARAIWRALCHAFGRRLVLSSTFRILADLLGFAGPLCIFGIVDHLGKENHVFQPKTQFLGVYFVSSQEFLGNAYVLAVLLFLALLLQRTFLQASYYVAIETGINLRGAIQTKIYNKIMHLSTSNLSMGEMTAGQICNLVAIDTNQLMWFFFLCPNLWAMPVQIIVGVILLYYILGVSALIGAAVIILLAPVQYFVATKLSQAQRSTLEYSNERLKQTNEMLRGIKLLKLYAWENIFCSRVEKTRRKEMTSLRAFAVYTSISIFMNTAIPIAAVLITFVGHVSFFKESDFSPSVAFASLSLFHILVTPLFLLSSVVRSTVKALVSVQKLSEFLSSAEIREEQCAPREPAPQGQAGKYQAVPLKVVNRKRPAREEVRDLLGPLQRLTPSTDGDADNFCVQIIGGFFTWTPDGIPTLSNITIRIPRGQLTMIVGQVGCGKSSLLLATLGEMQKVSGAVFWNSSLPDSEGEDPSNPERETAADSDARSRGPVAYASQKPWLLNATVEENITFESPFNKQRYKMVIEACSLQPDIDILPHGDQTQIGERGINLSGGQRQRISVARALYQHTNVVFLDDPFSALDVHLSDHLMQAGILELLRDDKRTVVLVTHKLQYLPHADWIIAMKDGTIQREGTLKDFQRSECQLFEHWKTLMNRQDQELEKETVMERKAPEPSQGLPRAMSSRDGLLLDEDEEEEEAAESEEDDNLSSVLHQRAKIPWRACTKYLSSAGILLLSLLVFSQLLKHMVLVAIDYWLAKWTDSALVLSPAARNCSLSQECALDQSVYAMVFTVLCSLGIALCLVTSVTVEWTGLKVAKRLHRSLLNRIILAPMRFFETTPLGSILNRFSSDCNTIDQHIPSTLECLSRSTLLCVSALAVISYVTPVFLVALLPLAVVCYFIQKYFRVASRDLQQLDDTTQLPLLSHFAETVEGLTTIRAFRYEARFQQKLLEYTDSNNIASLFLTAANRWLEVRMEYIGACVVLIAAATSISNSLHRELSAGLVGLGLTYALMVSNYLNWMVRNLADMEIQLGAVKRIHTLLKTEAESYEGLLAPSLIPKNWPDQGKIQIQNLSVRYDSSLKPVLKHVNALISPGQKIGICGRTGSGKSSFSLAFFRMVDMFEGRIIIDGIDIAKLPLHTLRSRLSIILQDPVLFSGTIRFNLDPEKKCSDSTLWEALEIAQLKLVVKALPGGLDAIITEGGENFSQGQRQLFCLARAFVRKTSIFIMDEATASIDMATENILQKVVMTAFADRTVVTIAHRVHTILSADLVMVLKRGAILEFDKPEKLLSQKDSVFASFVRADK
K+ATP channel, sequence (P70673 whole entry partner): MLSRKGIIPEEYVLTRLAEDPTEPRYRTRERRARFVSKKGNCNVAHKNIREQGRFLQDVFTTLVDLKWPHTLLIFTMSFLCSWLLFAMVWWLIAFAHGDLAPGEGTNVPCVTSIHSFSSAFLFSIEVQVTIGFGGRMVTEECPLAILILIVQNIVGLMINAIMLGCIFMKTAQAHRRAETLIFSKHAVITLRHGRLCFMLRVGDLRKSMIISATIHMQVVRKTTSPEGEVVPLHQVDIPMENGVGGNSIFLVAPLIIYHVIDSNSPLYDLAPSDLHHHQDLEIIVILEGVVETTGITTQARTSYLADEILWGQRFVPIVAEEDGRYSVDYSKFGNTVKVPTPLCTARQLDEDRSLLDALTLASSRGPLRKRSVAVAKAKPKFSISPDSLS
Description: KATP Channel Mediated Binding Assay
The compounds of Comparative Examples I to XII and Compounds 59, 30, 22, 76 and 69 were tested for their effects in an in vitro receptor binding KATP channel assay.
as §1, §2

- half-life [1]: > 1 h
- PPARγ (% Inhibition of Control Specific Binding) [3]: 1%
- IC50 ([4]; Table 1, read-out: GST2 IC50 Range): 101 to 1000 nM
- IC50 ([4]; Table 3, read-out: GST2 IC50 range): 101 to 1000 nM
- IC50 ([4]; given beside the compound name in Examples 1 to 167, read-out: Potency Range (GST2 IC50)): 101 to 1000 nM
- inhibition at 10 µM ([5]; Table 1, 10 μM compound concentration, read-out: K^+ATP Channel (% Inhibition of Control Specific Binding)): 1%
- K+ATP Channel (% Inhibition of Control Specific Binding) ([5]; Table 3): 14%
Compound: O=C(Nc1ccc(C(F)(F)F)cc1)N1CCN(C(=O)c2cccc(F)n2)CC1 [Compound 22, 4-(6-Fluoro-pyridine-2-carbonyl)-piperazine-1-carboxylic acid (4-trifluoromethyl-phenyl)-amide]
- reduced weight gain [2]: 7%
